One data set concerns mammals. To be noted: cited from earlier work; for neuronal toxicity: used in mammals.
The subject of data set [1] is UPII-SV40T transgenic mice. Put plainly: Intravesical instillation of ICG and intraoperative NIRF identification of lymphatic channels and SLNs in bladder tumor mice. The class given is in vivo.
For data set [2] the following is noted: cited from earlier work.

Turning to `N=C(N)c1ccc(/C=C/c2ccc(C(=N)N)cc2O)cc1` [Fluorogold], in the data set on mammals, the neuronal toxicity result is “low evidence of neuronal toxicity”.
For `CC1(C)C(/C=C/C=C/C=C/C=C2\N(CCCCS(=O)(=O)O)c3ccc4ccccc4c3C2(C)C)=[N+](CCCCS(=O)(=O)[O-])c2ccc3ccccc3c21` [ICG, indocyanine green], the toxicity entry with mammals (in vivo) is reported as “low toxicity”. For the same compound, the neuronal toxicity entry in the data set with mammals is “low evidence of neuronal toxicity”. The “animals showing draining lymphatic channels and SLNs” value in data set [1] (12 female mice, intravesical ICG 2.5 mg/mf, 100 or 200 μl, NIRF 20, 30 and 60 minutes later) was determined as 12 animals. In data set [1] (dye instilled at 10, 20, 30, or 60 minutes before imaging), the “visualization of SLNs by intraoperative imaging” value is “successfully visualized”. Moreover, in data set [1] (in all animals, intravesical ICG, NIRF), the “sentinel nodes detected per animal” value is on record as “At least two”. In addition, the “location of SLNs” value in data set [1] (intravesical ICG, NIRF) is on record as “common or external iliac lymphatic chains”. The “fluorescence of lymphatic channels and nodes following instillation of the dye into the bladder” value in data set [1] (mouse, FIG. 1B and 1C) was “fluorescing of the mouse's lymphatic channels and nodes on iliac bifurcation”. For the same compound, the metabolism result in data set [2] (in the body) was “not metabolized”. Besides, in data set [2] (in vivo), the excretion result was “excreted exclusively by the liver”; the “reabsorption from the intestine / enterohepatic recirculation” value is “not reabsorbed from the intestine and does not undergo enterohepatic recirculation”.
Fast Blue: the neuronal toxicity result in the data set on mammals is reported as “low evidence of neuronal toxicity”.

The values above are taken from US9089601B2, “Pre- and intra-operative imaging of bladder cancer” (University of Rochester, priority 2006, dated 2015).
